Results from publication PMC2254147, “Novel Triazine JPC-2067-B Inhibits Toxoplasma gondii In Vitro and In Vivo” (PLoS Neglected Tropical Diseases, 2008).

Target: T1, TgDHFR (Toxoplasma gondii, UniProt Q07422)
T1 construct: DHFR from T. gondii was isolated directly from RH strain T. gondii grown in culture; endogenous in cells; host or cells: RH strain T. gondii grown on CHO/dhfr- cells
T1 sequence (Q07422 1-610): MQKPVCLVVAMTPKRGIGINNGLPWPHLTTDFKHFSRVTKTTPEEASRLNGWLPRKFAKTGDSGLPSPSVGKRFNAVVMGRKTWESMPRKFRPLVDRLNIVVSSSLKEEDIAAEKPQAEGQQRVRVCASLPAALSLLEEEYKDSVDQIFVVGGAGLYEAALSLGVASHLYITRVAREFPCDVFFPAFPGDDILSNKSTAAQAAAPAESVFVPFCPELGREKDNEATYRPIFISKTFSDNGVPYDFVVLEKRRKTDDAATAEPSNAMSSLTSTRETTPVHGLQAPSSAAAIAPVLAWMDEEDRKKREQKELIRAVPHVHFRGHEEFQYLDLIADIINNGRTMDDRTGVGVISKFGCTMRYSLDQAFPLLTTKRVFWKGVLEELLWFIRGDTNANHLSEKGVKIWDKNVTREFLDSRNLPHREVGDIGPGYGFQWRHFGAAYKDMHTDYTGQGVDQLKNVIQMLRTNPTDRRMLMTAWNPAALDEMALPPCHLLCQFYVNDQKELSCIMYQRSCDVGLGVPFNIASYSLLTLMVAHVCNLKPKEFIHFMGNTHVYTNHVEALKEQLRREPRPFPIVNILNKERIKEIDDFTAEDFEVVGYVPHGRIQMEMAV
Assay: biochemical
Type: biochemical
Conditions: 23°C
Description: DHFR from T. gondii prepared as above was also directly compared to purified recombinant P. falciparum DHFR (pfDHFR) and purified recombinant human DHFR (hDHFR). The hDHFR was from pDFR plasmid. The enzyme was purified following ammonium sulfate precipitation, methotrexate:agarose affinity chromatography, and finally a Superdex 200 size exclusion column. The pfDHFR isolation methods were those reported previously,[44]. […] The same buffer as used in the other assays comparing T. gondii DHFR with DHFRs from rat liver P. carinii and M. avium intracellulare was used but the maximal activity, temperature, and length of observation were adjusted for assays on the specific plate reader. […] The reaction was setup at 23°C, the plate loaded, and the OD340 recorded at 20 second intervals for 10 minutes. The first 8 minutes were used to generate linear fit slopes in Excel. […] Results are expressed as the percent of control activity versus log concentration of inhibitor. Prism 5.0 was used to generate curves from 12 different concentrations of inhibitor using a non-linear fit method.

SMILES: CC1(C)N=C(N)N=C(N)N1OCCCOc1ccc(OC(F)(F)F)cc1Cl [JPC-2067-B, 4,6-diamino-1,2-dihydro-2,2-dimethyl-1-(3′(2-chloro-, 4-trifluoromethoxyphenoxy)propyloxy)-1,3,5-triazine]
- IC50 (Tg lysate, (95% Confidence Intervals)): 32 nM
- Ratio of IC50 values hDHFR/tgDHFR (high throughput method): 4.6
